In test [1] the target is T1, full-length beta-Catenin (Uniprot ID P35222) (Homo sapiens, UniProt P35222).
T1 construct: 10 nM full-length beta-Catenin (Uniprot ID P35222)
T1 sequence (P35222 1-781): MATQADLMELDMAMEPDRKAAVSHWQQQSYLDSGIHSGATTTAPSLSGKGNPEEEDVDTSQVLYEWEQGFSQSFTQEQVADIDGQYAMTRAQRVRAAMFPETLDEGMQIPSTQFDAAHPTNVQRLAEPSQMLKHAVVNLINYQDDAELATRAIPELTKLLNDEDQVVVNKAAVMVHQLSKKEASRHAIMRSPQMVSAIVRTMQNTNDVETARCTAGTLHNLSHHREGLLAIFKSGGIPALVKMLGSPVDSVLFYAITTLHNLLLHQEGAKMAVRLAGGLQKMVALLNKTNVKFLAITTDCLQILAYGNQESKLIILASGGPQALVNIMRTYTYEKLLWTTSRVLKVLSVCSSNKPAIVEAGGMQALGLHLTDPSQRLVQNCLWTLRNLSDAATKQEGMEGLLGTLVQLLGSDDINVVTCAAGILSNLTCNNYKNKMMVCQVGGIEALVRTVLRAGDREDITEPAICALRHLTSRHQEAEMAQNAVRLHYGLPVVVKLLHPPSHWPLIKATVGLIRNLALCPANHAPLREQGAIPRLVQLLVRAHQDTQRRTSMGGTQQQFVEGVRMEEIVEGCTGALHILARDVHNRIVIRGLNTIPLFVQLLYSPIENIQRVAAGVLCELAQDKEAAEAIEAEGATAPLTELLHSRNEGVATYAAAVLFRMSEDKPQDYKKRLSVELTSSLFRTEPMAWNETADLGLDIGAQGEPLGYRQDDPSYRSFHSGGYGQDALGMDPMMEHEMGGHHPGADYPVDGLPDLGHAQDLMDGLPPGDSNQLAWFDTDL
Nature of the test: Fluorescence polarization IC50 (beta-catenin / 5FAM-TCF4 10-53 competition). The class given is binding. The note with it: fluorescence polarization; read-out: beta-Catenin FP IC50. Background: In fluorescence polarisation assays a small probe gives low polarisation when free and higher when bound to something large.

For test [2], the target named is T2, beta-catenin/TCF4 engagement (Homo sapiens, UniProt P35222).
T2 construct: expressed in transfected cells; host or cells: HEK293
T2 sequence (P35222 1-781): T1 sequence (P35222 1-781)
Nature of the test: Nano-BRET target engagement assay (B-cat-Halo & TCF4-Luc in HEK293 cells). It is filed as cell-based. The note with it: absolute IC50; read-out: NanoBRET Abs IC50. In general terms: BRET reads energy transfer from a luciferase to a nearby fluorophore.

As a reminder, the IC50 is the concentration that gives 50% inhibition.

SMILES strings stand for the structures.

On to `CC(=O)N1CCC[C@]12CC=CCCCC1(CCCC=CCCCOC(=O)N3CC[C@@](C(=O)N[C@@H](Cc4ccsc4)C(=O)N[C@@H](Cc4cccc(Cl)c4)C(=O)N[C@@H](CCC(N)=O)C(N)=O)(C3)NC(=O)[C@H](CC(C)C)NC(=O)[C@H](Cc3ccccc3)NC(=O)[C@H](C)NC(=O)[C@H](C)NC(=O)[C@H](Cc3cccc(C(=O)O)c3)NC(=O)[C@H](CC(=O)O)NC1=O)NC(=O)[C@H](CC(C)(C)C)NC(=O)[C@H](CC(=O)O)NC2=O` (stereo partly drawn) [I-2224, Ac-PL3-Asp-Npg-B5-Asp-3COOHF-Ala-Ala-Phe-Leu-PyrS2-3Thi-3C1F-Gln-NH2], for which the IC50 in test [1] came to 14 nM; in test [2] it was 14200 nM.
The corresponding values for `CC(=O)N1CCC[C@]12CC=CCCCC1(CCCC=CCCCOC(=O)N3CC[C@@](C(=O)N[C@@H](Cc4ccsc4)C(=O)N[C@@H](Cc4cccc(Cl)c4)C(=O)N[C@@H](C)C(N)=O)(C3)NC(=O)[C@H](C(C)C)NC(=O)[C@H](Cc3ccccc3)NC(=O)[C@H](C)NC(=O)[C@H](CCC(N)=O)NC(=O)[C@H](Cc3cccc(C(=O)O)c3)NC(=O)[C@H](CC(=O)O)NC1=O)NC(=O)[C@H](CC(C)(C)C)NC(=O)[C@H](CC(=O)O)NC2=O` (stereo partly drawn) [I-2225, Ac-PL3-Asp-Npg-B5-Asp-3COOHF-Gln-Ala-Phe-Val-PyrS2-3Thi-3C1F-Ala-NH2] are 13 nM and 7800 nM.
Regarding `CC(=O)N1CCC[C@]12CC=CCCCC1(CCCC=CCCCOC(=O)N3CC[C@@](C(=O)N[C@@H](Cc4ccccc4C(F)(F)F)C(=O)N[C@@H](Cc4cccc(Cl)c4)C(=O)N[C@@H](CO)C(N)=O)(C3)NC(=O)[C@H](CC(C)C)NC(=O)[C@H](Cc3ccccc3)NC(=O)[C@H](C)NC(=O)[C@H](C)NC(=O)[C@H](Cc3cccc(C(=O)O)c3)NC(=O)[C@H](CC(=O)O)NC1=O)NC(=O)[C@H](CC(C)(C)C)NC(=O)[C@H](CC(=O)O)NC2=O` (stereo partly drawn) [I-2226, Ac-PL3-Asp-Npg-B5-Asp-3COOHF-Ala-Ala-Phe-Leu-PyrS2-2F3MeF-3C1F-Ser-NH2], the IC50 in test [1] stood at 97 nM; in test [2] it was 10600 nM.
The like results for `CC(=O)N1CCC[C@]12CC=CCCCC1(CCCC=CCCCOC(=O)N3CC[C@@](C(=O)N[C@@H](Cc4ccccc4C(F)(F)F)C(=O)N[C@@H](Cc4cccc(Cl)c4)C(=O)N[C@@H](C)C(N)=O)(C3)NC(=O)[C@H](CC(C)C)NC(=O)[C@H](Cc3ccccc3)NC(=O)[C@H](C)NC(=O)[C@H](CCC(N)=O)NC(=O)[C@H](Cc3cccc(C(=O)O)c3)NC(=O)[C@H](CC(=O)O)NC1=O)NC(=O)[C@H](CC(C)(C)C)NC(=O)[C@H](CC(=O)O)NC2=O` (stereo partly drawn) [I-2227, Ac-PL3-Asp-Npg-B5-Asp-3COOHF-Gln-Ala-Phe-Leu-PyrS2-2F3MeF-3C1F-Ala-NH2] were, in that order, 47 nM and 6300 nM.
The corresponding values for `CC(=O)N1CCC[C@]12CC=CCCCC1(CCCC=CCCCOC(=O)N3CC[C@@](C(=O)N[C@@H](Cc4ccsc4)C(=O)N[C@@H](Cc4csc5ccccc45)C(=O)N[C@@H](CCC(N)=O)C(N)=O)(C3)NC(=O)[C@H](CC(C)C)NC(=O)[C@H](Cc3ccccc3)NC(=O)[C@H](C)NC(=O)[C@H](C)NC(=O)[C@H](CN(CC(=O)O)C(=O)CCCN(C)C)NC(=O)[C@H](CC(=O)O)NC1=O)NC(=O)[C@H](CC(C)(C)C)NC(=O)[C@H](CC(=O)O)NC2=O` (stereo partly drawn) [I-2233, Ac-PL3-Asp-Npg-B5-Asp-[NdiMeButC]GA-Ala-Ala-Phe-Leu-PyrS2-3Thi-BztA-Gln-NH2] are 14 nM and more than 20000 nM.
`CC(=O)N1CCC[C@]12CC=CCCCC1(CCCC=CCCCOC(=O)N3CC[C@@](C(=O)N[C@@H](Cc4ccsc4)C(=O)N[C@@H](Cc4csc5ccccc45)C(=O)N[C@@H](CCC(N)=O)C(N)=O)(C3)NC(=O)[C@H](CC(C)C)NC(=O)[C@H](Cc3ccccc3)NC(=O)[C@H](C)NC(=O)[C@H](C)NC(=O)[C@H](CN(CC(=O)O)C(=O)CCN(C)C)NC(=O)[C@H](CC(=O)O)NC1=O)NC(=O)[C@H](CC(C)(C)C)NC(=O)[C@H](CC(=O)O)NC2=O` (stereo partly drawn) [I-2234, Ac-PL3-Asp-Npg-B5-Asp-[Me2NPr]GA-Ala-Ala-Phe-Leu-PyrS2-3Thi-BztA-Gln-NH2]: the IC50 was 22 nM in test [1] and more than 20000 nM in test [2].
The corresponding values for `CC(=O)N1CCC[C@]12CC=CCCCC1(CCCC=CCCCOC(=O)N3CC[C@@](C(=O)N[C@@H](Cc4ccsc4)C(=O)N[C@@H](Cc4csc5ccccc45)C(=O)N[C@@H](CCC(N)=O)C(N)=O)(C3)NC(=O)[C@H](CC(C)C)NC(=O)[C@H](Cc3ccccc3)NC(=O)[C@H](C)NC(=O)[C@H](C)NC(=O)[C@H](CN(CC(=O)O)C(=O)C3CCN(C)CC3)NC(=O)[C@H](CC(=O)O)NC1=O)NC(=O)[C@H](CC(C)(C)C)NC(=O)[C@H](CC(=O)O)NC2=O` (stereo partly drawn) [I-2235, Ac-PL3-Asp-Npg-B5-Asp-[4AcMePip]GA-Ala-Ala-Phe-Leu-PyrS2-3Thi-BztA-Gln-NH2] are 40 nM and more than 20000 nM.
The corresponding values for `CC(=O)N1CCC[C@]12CC=CCCCC1(CCCC=CCCCOC(=O)N3CC[C@@](C(=O)N[C@@H](Cc4ccsc4)C(=O)N[C@@H](Cc4csc5ccccc45)C(=O)N[C@@H](CCC(N)=O)C(N)=O)(C3)NC(=O)[C@H](CC(C)C)NC(=O)[C@H](Cc3ccccc3)NC(=O)[C@H](C)NC(=O)[C@H](C)NC(=O)[C@H](CN(CC(=O)O)C(=O)Cc3ccc(C(F)(F)F)cc3)NC(=O)[C@H](CC(=O)O)NC1=O)NC(=O)[C@H](CC(C)(C)C)NC(=O)[C@H](CC(=O)O)NC2=O` (stereo partly drawn) [I-2236, Ac-PL3-Asp-Npg-B5-Asp-[4CF3PhAc]GA-Ala-Ala-Phe-Leu-PyrS2-3Thi-BztA-Gln-NH2] are 23 nM and 15300 nM.
The like results for `CC(=O)N1CCC[C@]12CC=CCCCC1(CCCC=CCCCOC(=O)N3CC[C@@](C(=O)N[C@@H](Cc4ccsc4)C(=O)N[C@@H](Cc4csc5ccccc45)C(=O)N[C@@H](CCC(N)=O)C(N)=O)(C3)NC(=O)[C@H](CC(C)C)NC(=O)[C@H](Cc3ccccc3)NC(=O)[C@H](C)NC(=O)[C@H](C)NC(=O)[C@H](CN(CC(=O)O)C(=O)c3ccccn3)NC(=O)[C@H](CC(=O)O)NC1=O)NC(=O)[C@H](CC(C)(C)C)NC(=O)[C@H](CC(=O)O)NC2=O` (stereo partly drawn) [I-2237, Ac-PL3-Asp-Npg-B5-Asp-[Pic]GA-Ala-Ala-Phe-Leu-PyrS2-3Thi-BztA-Gln-NH2] were, in that order, 5 nM and 24300 nM.
As for `CC(=O)N1CCC[C@]12CC=CCCCC1(CCCC=CCCCOC(=O)N3CC[C@@](C(=O)N[C@@H](Cc4ccsc4)C(=O)N[C@@H](Cc4csc5ccccc45)C(=O)N[C@@H](CCC(N)=O)C(N)=O)(C3)NC(=O)[C@H](CC(C)C)NC(=O)[C@H](Cc3ccccc3)NC(=O)[C@H](C)NC(=O)[C@H](C)NC(=O)[C@H](CN(CC(=O)O)C(=O)CN3CCOCC3)NC(=O)[C@H](CC(=O)O)NC1=O)NC(=O)[C@H](CC(C)(C)C)NC(=O)[C@H](CC(=O)O)NC2=O` (stereo partly drawn) [I-2239, Ac-PL3-Asp-Npg-B5-Asp-[MorphAc]GA-Ala-Ala-Phe-Leu-PyrS2-3Thi-BztA-Gln-NH2], the IC50 in test [1] was determined as 10 nM; in test [2] it was 31900 nM.
With `CC(=O)N1CCC[C@]12CC=CCCCC1(CCCC=CCCCOC(=O)N3CC[C@@](C(=O)N[C@@H](Cc4ccsc4)C(=O)N[C@@H](Cc4csc5ccccc45)C(=O)N[C@@H](CCC(N)=O)C(N)=O)(C3)NC(=O)[C@H](CC(C)C)NC(=O)[C@H](Cc3ccccc3)NC(=O)[C@H](C)NC(=O)[C@H](C)NC(=O)[C@H](CN(CC(=O)O)C(=O)CN3CCN(C)CC3)NC(=O)[C@H](CC(=O)O)NC1=O)NC(=O)[C@H](CC(C)(C)C)NC(=O)[C@H](CC(=O)O)NC2=O` (stereo partly drawn) [I-2240, Ac-PL3-Asp-Npg-B5-Asp-[MePipAc]GA-Ala-Ala-Phe-Leu-PyrS2-3Thi-BztA-Gln-NH2], the values for the half-maximal inhibitory concentration (IC50) in test [1] and in test [2] were 5 nM and more than 20000 nM, respectively.
In the case of `CC(=O)N1CCC[C@]12CC=CCCCC1(CCCC=CCCCOC(=O)N3CC[C@@](C(=O)N[C@@H](Cc4ccsc4)C(=O)N[C@@H](Cc4csc5ccccc45)C(=O)N[C@@H](CCC(N)=O)C(N)=O)(C3)NC(=O)[C@H](CC(C)C)NC(=O)[C@H](Cc3ccccc3)NC(=O)[C@H](C)NC(=O)[C@H](C)NC(=O)[C@H](CN(CC(=O)O)C(=O)Cc3c(F)c(F)c(F)c(F)c3F)NC(=O)[C@H](CC(=O)O)NC1=O)NC(=O)[C@H](CC(C)(C)C)NC(=O)[C@H](CC(=O)O)NC2=O` (stereo partly drawn) [I-2241, Ac-PL3-Asp-Npg-B5-Asp-[PfPhAc]GA-Ala-Ala-Phe-Leu-PyrS2-3Thi-BztA-Gln-NH2], the concentration for half-maximal inhibition (IC50) in test [1] is 18 nM; in test [2] it was 17700 nM.
The corresponding values for `CC(=O)N1CCC[C@]12CC=CCCCC1(CCCC=CCCCOC(=O)N3CC[C@@](C(=O)N[C@@H](Cc4ccsc4)C(=O)N[C@@H](Cc4csc5ccccc45)C(=O)N[C@@H](CCC(N)=O)C(N)=O)(C3)NC(=O)[C@H](CC(C)C)NC(=O)[C@H](Cc3ccccc3)NC(=O)[C@H](C)NC(=O)[C@H](C)NC(=O)[C@H](CN(CC(=O)O)C(=O)c3c(F)c(F)c(F)c(F)c3F)NC(=O)[C@H](CC(=O)O)NC1=O)NC(=O)[C@H](CC(C)(C)C)NC(=O)[C@H](CC(=O)O)NC2=O` (stereo partly drawn) [I-2242, Ac-PL3-Asp-Npg-B5-Asp-[PfBz]GA-Ala-Ala-Phe-Leu-PyrS2-3Thi-BztA-Gln-NH2] are 13 nM and 21400 nM.
